Where “and” joins values, the source holds several entries; their conditions need not be identical. Equal values may be shown once.
Tests used:
[1] = test system: Hoodia explants; assay: Effect of BAP and IAA concentrations and combinations on shoot multiplication; type: cell-based, Hoodia gordonii
Procedure: In all the multiplication and later rooting trials, the experiments were carried out in a randomised factorial design with at least four replicates per treatment. The student's t-test was used to determine significant difference between the phytohormone treatments. P values≦0.05 was considered significant.
This example tested the effect of different benzylaminopurine (BAP, cytokinin), indoleacetic acid (IAA, auxin) concentration and combinations on shoot multiplication.
The basal salt medium used for this experiment was M&S basal salt and vitamins. All the other components were the same as used for initiation medium in Example 1. […] Factorial experiments were designed to test the effect of these phytohormones on shoot multiplication.
Each treatment had four replicates. Results were obtained after two sub-cultures.

[2] = test system: Hoodia explants; assay: Effect of gibberellic acid concentrations on shoot elongation and proliferation; type: cell-based, Hoodia gordonii; conditions: for Number of new shoots: replicates 1-7
Procedure: This Example investigated the effect of various giberellic acid concentrations on shoot elongation and proliferation.
An average of four shoots per explant was observed when the GA3 concentration was increased from 2.89 μM to 5.78 μM with 17.74 μM of BAP and 5.71 μM of IAA. As the concentration increased, the shoot length was retarded but side shoots were formed.

[3] = test system: H. gordonii shoot tips; assay: Sterilisation of shoot tips: clean plants free of visible bacteria or fungal growth; parameters: species or system Hoodia gordonii
Procedure: Example 1 investigated the effect of various sterilization protocols on the number of clean shoots and their ability to produce new shoots after sterilization.
A total of 211 shoot tips (5-6 cm) of fresh H. gordonii plant material were collected from cultivation sites.
The shoot tips were washed thoroughly for 3-5 minutes under running tap water and liquid detergent to remove any debris from the field. The spikes on some of the plants were carefully removed with a surgical blade before the sterilisation process. […] Each tub contained around 10 shoot tips placed in 300 ml of the sterilizing solution. The tubs were placed on a shaker at low speed 80 rpm for 5 minutes. After 5 minutes, the mercuric chloride was poured out and the plants were rinsed once in sterile distilled water. After rinsing with sterile distilled water, a second sterilisation process with 30% sodium hypochlorite solution was carried out. The tubs were placed on a shaker at a speed of 80 rpm for 30 or 40 minutes. A total of 188 shoots were sterilized for 30 minutes while […] shoots were sterilized for 40 minutes. After draining the sodium hypochlorite, a batch of the plants were rinsed in distilled sterile water before putting in the initiation medium white another batch was placed directly into the initiation medium without rinsing. Recording of the percentage clean plants was done two weeks after initiation. Clean plants were shoots that were free of visible bacteria or fungal growth.
After sterilisation, the shoot tips were cultured on Murashige and Skoog (M&S) basal salt medium with M&S vitamins supplemented with 30 g/l sucrose, 3 g/l gelrite, 25 mg/l cefotaxime. The phytohormones used for the initiation medium were 17.74 μM Benzylaminopurine (BAP) and 5.71 μM Indole acetic acid (IAA). The pH of all the media tested was adjusted to 5.8 with either 1M potassium hydroxide (KOH) or 1N hydrochloric acid (HCl) before autoclaving at 121° C. for 20 minutes. Each 250 ml bottle contained one shoot tip. All the cultures were incubated at 26±2° C. in a growth room with a 16/8 hour light/dark photoperiod (39-90 μE/m^2/s). New shoot growth normally started a week after sterilisation. After two weeks in culture, bottles that were visibly clean were counted.

[4] = test system: Hoodia shoots; assay: Effect of sucrose concentration on new shoot formation; type: cell-based, Hoodia gordonii; conditions: lowering sucrose from 30 g/l to 20 g/l in the multiplication medium
Source text: Example 6 tested the effect of three sucrose concentrations 0, 20 and 30 g/l on new shoot formation. All the other supplements were the same as for the initiation medium in Example 1. M&S basal salt and vitamin was used as the basal medium.
The sucrose concentrations used for the multiplication experiments were 0, 20 and 30 g/l respectively. There was no multiplication on plants placed in the control (0 g/l) medium which had no sugar. The shoots were stunted and started to turn to yellow after three weeks in culture.

Structure (SMILES): c1ccc(CNc2ncnc3[nH]cnc23)cc1 [BAP, benzylaminopurine]
- Average shoots per explant ([1]; BAP 17.74 μM with IAA 5.71 μM): 4
- Callus growth ([1]; BAP 17.74 μM with IAA 5.71 μM, compared to BAP 22.19 μM): less callus growth
- Average side shoots per explant ([1]; BAP 22.19 μM and IAA 5.71 μM): four
- Auxiliary shoots production ([1]; BAP concentrations higher than 44.38 μM): retarded

Structure (SMILES): C=C1C[C@]23C[C@@]1(O)CC[C@H]2[C@@]12C=C[C@H](O)[C@@](C)(C(=O)O1)[C@H]2[C@@H]3C(=O)O [GA3, gibberellic acid]
- Number of new shoots ([2]; GA3 1.44 μM): 1 (3×) and 2 (2×) and 0 (2×)
- Shoot elongation and multiplication ([2]; GA3 2.89 μM and 5.77 μM): elongated and multiplied better
- Number of new shoots ([2]; GA3 2.89 μM): 3 (3×) and 2 (2×) and 4 (2×)
- Increase in length of the initial explant ([2]; GA3 5.77 μM): ~1 cm
- Number of new shoots ([2]; GA3 5.77 μM): 4 (2×) and 5 (2×) and 6 and 7 and 8
- Average shoots per explant ([2]; GA3 increased from 2.89 μM to 5.78 μM with 17.74 μM BAP and 5.71 μM IAA): four

Structure (SMILES): OCl [sodium hypochlorite]
- Appearance of shoot tips after sterilisation ([3]; 30 minute treatment): still green
- Number of clean plants ([3]; 30 minutes of sterilisation, out of 188 plants): 170 plants out of 188
- Appearance of shoot tips after sterilisation ([3]; 40 minute treatment): heavily bleached on the external tissue
- Number of clean plants ([3]; 40 minutes of sterilisation, out of 44 total): 41 plants out of 44
- Difference in time taken for shoots to emerge ([3]; 40 minutes versus 30 minutes bleach treatment, in favour of 30 minutes): about one
- Contamination rate ([3]; sterilizing only with sodium hypochlorite (no mercuric chloride), field grown cultures): 80%

Structure (SMILES): OC[C@H]1O[C@@](CO)(O[C@H]2O[C@H](CO)[C@@H](O)[C@H](O)[C@H]2O)[C@@H](O)[C@@H]1O [sucrose]
- Effect on shoot development and multiplication [4]: no significant effect
